Read-outs that look alike come from different tables or passages of the source.
How the values were obtained:
ICAM-1 = test: Cell surface ELISA for ICAM-1 in human umbilical vein endothelial cells (HUVEC), TNF-alpha induced; type: cell-based; conditions: 50 μM, average of two runs, numbers in parentheses represent negative values
Description: (§1) Cell Surface ELISA for VCAM-1/ICAM-1
(§2) Proliferating human umbilical vein endothelial cells (HUVEC) or human aortic smooth muscle cells (HASMC) from Clonetics (San Diego, Calif.) were plated onto 96-well plates in 100 μL medium per well at 20,000 cells per cm^2. The cultures were maintained in growth medium (EGM or SMGM2, Clonetics, San Diego, Calif.) for two days prior to addition of cytokines or drugs. Cytokines plus or minus compounds were added for 20 to 24 hours prior to analysis for adhesion molecule levels. Tumor necrosis factor (Genzyme, Cambridge, Mass.) was added to cultures at 500-1000 units/mL. Interleukin-4 (GIBCO-BRL, Gaithersburg, Md.) was added to cultures at 100-200 pg/mL. (Additions were made by transferring 100 [μL of cytokines plus compounds serially diluted on a separate 96-well plate into the plates containing cells. The medium on the cultures was not exchanged prior to addition of effectors). The culture medium was removed, and the monolayers were washed twice with Hanks buffered saline solution (HBSS) at room temperature. The primary antibody (anti-human VCAM-1 from Upstate Biotechnology, Inc., Lake Placid, N.Y. or anti-human ICAM-1 from Immunotech, Inc., Westbrook, Me.) was added to each well (1 μg/mL in HBSS plus 5% newborn calf serum, GIBCO-BRL, Gaithersburg, Md.) and incubated at 37° C. for 1 hr. The wells were washed twice with HBSS, then 100 μL of a 1/1000 dilution of goat anti-mouse IgG conjugated to horse radish peroxidase (BioRad, Hercules, Calif.) in HBSS plus 5% newborn calf serum was added to each well and incubated for 1 hr at 37° C. The wells were washed three times with HBSS, then 100 μL of TMB substrate (BioRad, Hercules, Calif.) was added to each well. The reaction was stopped after blue color developed by addition of 50 μL of 1N H2 SO4. Absorbance is measured at 450 nm with a plate reader. IC50 values were determined from curves of absorbance values obtained from serial dilutions of compounds (dissolved in dimethyl sulfoxide).
(§3) The IC50 value is defined as the drug concentration that inhibits the cytokine-induced adhesion molecule expression by 50%. Maximal values for adhesion molecule expression in cytokine-induced cultures was […] the basal level of adhesion molecule expression (minus cytokines) in the cultures to determine the level of induction. […] Each drug concentration was tested in quadruplicate wells. Single point tests of compounds at 50 μM were assayed as described for IC50 determinations, except that the data represent the level of inhibition without correction for basal expression. (Basal adhesion molecule expression was 10-20% of the total induced expression). Table 1 summarizes the ability of various compounds of this invention to inhibit VCAM-1 using human aortic smooth muscle cells (HASMC). In these experiments, the cells were coincubated with interleukin-4 and the compounds listed about 20 hr before assaying cell surface VCAM-1 levels. Each column represents a separate experiment.
(§4) In these experiments, the cells were coincubated with tumor necrosis factor-alpha along with the indicated compounds about 20 to 24 hr before assaying cell surface adhesion molecule expression.

VCAM-1 [1] = test: Cell surface ELISA for VCAM-1 in human umbilical vein endothelial cells (HUVEC), TNF-alpha induced; type: cell-based; conditions: 50 μM, average of three runs
Description: as §1, §2, §3, §4

VCAM-1 [2] = test: Cell surface ELISA for VCAM-1 in human aortic smooth muscle cells (HASMC), interleukin-4 induced; type: cell-based; conditions: 50 μm; for VCAM-1 (Avg.) % inh.: average of HSMC-1 to HSMC-3; for HSMC-1 % inh. of VCAM-1: experiment HSMC-1, interleukin-4, about 20 hr; for HSMC-2 % inh. of VCAM-1: experiment HSMC-2, interleukin-4, about 20 hr; for HSMC-3 % inh. of VCAM-1: experiment HSMC-3, interleukin-4, about 20 hr
Description: as §1, §2, §3

[3] = test system: serum cholesterol, LDL, HDL, triglycerides; test: Serum lipids and lipoprotein cholesterol in cholesterol-fed female New Zealand White rabbits; type: in vivo; conditions: Oryctolagus cuniculus, po, 168 h, rabbit serum, diet 0.26%, 7 days
Description: (§5) Five independent experiments were performed in the following manner. […] Female New Zealand White rabbits (Hazelton, ~2.0-2.3 kg) were fed 0.2% cholesterol enriched rabbit chow (Purina #5322) with or without 0.4% MDL compound (except, MDL 108,804 at 0.26% and MDL 103,491 repeated at 0.6%). The MDL compounds were solubilized in 100% ethanol. MDL 108,208 was not soluble in 100% ethanol, but it was soluble in diethyl ether:ethanol (3:2 by volume). The chow was sprayed with the MDL mixtures and allowed to dry overnight in a chemical fume hood. Control chow was sprayed with ethanol. Rabbits were fed 100 grams food per day for 7 days (0.6% MDL 103,491 were fed for 14 days); water was available ad libitum. On day 7, rabbits (fasted overnight) were bled (~2 mL) from marginal ear vein; 0.6% MDL 103,491 treated rabbits were tested on day 14. They were euthanized by carbon dioxide overdose. The total body and liver weights were recorded in grams. Food consumption was recorded as grams.cndot.day^-1 .cndot.rabbit^-1. Aliquots of fresh serum were used for clinical chemistries, lipoprotein cholesterol determination, thiobarbituric acid reactive substances (TBARS) and compound and metabolite concentrations in serum. Livers (~5 gram aliquots) were frozen at -20° C. for compound and metabolite concentration determination at a later time.
Blood was allowed to clot at room temperature for 30 minutes. Serum was obtained after centrifugation for 10 min at 5° C. at 3000 rpm in a Beckman GPKR centrifuge with a GH rotor. Fresh serum was analyzed by a COBAS MIRA autoanalyzer (Roche Diagnostics) using Roche diagnostic reagents for total cholesterol (CHOL, kit #44334) and triglyceride (TG, kit #44120). Cholesterol and triglycerides were calculated as mg/dL.
Lipoprotein fractions (very low density lipoprotein, VLDL, low density lipoprotein, LDL and high density lipoprotein, HDL) were separated on a Sepharose 6HR column (1×30 cm, Pharmacia) attached to a Waters Powerline HPLC system. Fifty μL of serum were injected onto the column and eluted with phosphate buffered saline, pH 7.4, at a flow rate of 0.5 mL/min. Cholesterol reagent (Roche Diagnostics, kit #44334, diluted with 20 mL water and then with 20 mL of 0.9% saline) was added at 0.2 mL/min to the post column eluant and incubated in a knitted PFTE Kratos reaction coil (Applied Biosystems) at 37° C. for 5 min. Absorbance was measured at 500 nm. The lipoprotein subfractions were quantitated as follows: [formula]

[4] = HPLC quantitation of compound and metabolite concentration in rabbit serum and liver; type: in vivo, female New Zealand White rabbits; conditions: diet 0.26%, 7 days
Description: as §5
Serum and liver concentrations of parent compounds and the metabolites, bisphenol and diphenoquinone, were determined by reverse phase HPLC using a Waters 990 Powerline system. Livers (1 gram) were homogenized with 5.0 mL PBS, pH 7.4, using a Polytron tissue homogenizer at setting 5 for 20-30 seconds. Serum or liver homogenates were extracted as follows: 100 μL of either serum or homogenate were added to 2.0 mL diethyl ether:ethanol (3:1) while vortexing the tube. The sample tubes were capped and centrifuged for 10 min at 5° C. at 3500 rpm in a Beckman GPKR centrifuge with a GH 3.7 rotor. The supernatants were transferred to clean tubes and dried under N2. Samples were reconstituted with 200 μL of acetonitrile:hexane:0.1M ammonium acetate (90:6.5:3.5, by vol.). Then, 100 μL were injected onto a Waters Deltapak C18-300 Å column, and eluted with an 83% acetonitrile:17% water mobile phase at a flow rate of 1.5 mL/min. Absrobances at the wavelengths of 240, 254, and 420 nm were recorded. Compound concentrations were calculated from known quantities of authentic parent compounds after correction for recovery; the range of recovery from spiked samples was 40 to 100%. The lowest detectable limit for this class of compounds was ~0.5 μg/mL. Concentrations were calculated as μg/mL of serum and μg/g of liver.

[5] = Food consumption, body and liver weight in cholesterol-fed rabbits; type: in vivo, female New Zealand White rabbits; conditions: diet 0.26%, 7 days
Description: as §5

[6] = test system: oxidation of serum lipids; test: TBARS assay, serum of cholesterol-fed rabbits; type: in vivo, female New Zealand White rabbits; conditions: Oryctolagus cuniculus, po, 168 h; rabbit serum, diet 0.26%, 7 days; read-out: TBARS, percent of control
Description: as §5
TBARS are a qualitative indication of the oxidation of lipids in a sample. In this assay the oxidation of serum lipids is initiated with CuSO4, resulting in the formation of aldehydes, such as malondialdehyde (MDA). Upon incubation with thiobarbituric acid, the absorbance of the aldehydes can be detected at 530-540 nm. TBARS values which are lower than control serum values indicate the relative ability of a compound to inhibit the oxidation. TBARS were measured as follows: 50 μL of serum were mixed with 50 μL of 0.9% saline and 400 μL of a 5 mM CuSO4 solution and incubated at 37° C. for 5 hr. The reactions were stopped by addition of 1.0 mL of 20% trichloroacetic acid. Then 1.0 mL of 0.67% thiobarbituric acid in 0.05N sodium hydroxide was added, mixed, and the samples incubated for 30 min at 90° C. Samples were centrifuged briefly to pellet undissolved material, and the supernatants were transferred to a 96-well microtiter plate. Absorbances were measured at 540 nm using a Biotek model EL311 microplate reader. The nmoles of MDA produced were calculated from a standard curve of 0 to 10 nmoles of MDA prepared from malonaldehyde bis(dimethylacetal). Serum samples from treated rabbits were compared to serum samples from control rabbits that received no MDL compound.

## Cc1cc(O)c(C)c(C)c1OC[Si](C)(C)c1ccccc1 [MDL 103,653, 2,3,5-Trimethyl-4-[(dimethylphenylsilyl)methyloxy]phenol]
ICAM-1
  ICAM-1 % inh.: 78.5%
VCAM-1 [1]
  VCAM-1 % inh.: 37.7%
VCAM-1 [2]
  VCAM-1 (Avg.) % inh.: 56.4%
  HSMC-1 % inh. of VCAM-1: 63.1%
  HSMC-2 % inh. of VCAM-1: 54.0%
  HSMC-3 % inh. of VCAM-1: 52.0%

## CC(C)(C)c1cc(SC[Si](C)(C)C)cc(C(C)(C)C)c1OC(=O)CCC(=O)O [MDL 104,863, 2,6-Di-t-butyl-4-[(trimethylsilyl)methylthio]phenol succinic acid ester]
ICAM-1
  ICAM-1 % inh.: 53%
VCAM-1 [1]
  VCAM-1 % inh.: 44.3%
VCAM-1 [2]
  VCAM-1 (Avg.) % inh.: 54.8%
  HSMC-1 % inh. of VCAM-1: 56.5%
  HSMC-2 % inh. of VCAM-1: 52.0%
  HSMC-3 % inh. of VCAM-1: 56.0%

## CC(C)(C)c1cc(OC[Si](C)(C)Cc2ccccc2)ccc1O [MDL 108,804, 2-t-butyl-4-[(dimethylbenzylsilyl)methyloxy]phenol]
[3]; read-out: HDL cholesterol, percent of control
  response vs control in vivo at 0.26 %: 109%
[3]; read-out: LDL cholesterol, percent of control
  response vs control in vivo at 0.26 %: 82%
[3]; read-out: TRIG (triglycerides), percent of control
  response vs control in vivo at 0.26 %: 143%
[3]; read-out: chol tot. (total cholesterol), percent of control
  response vs control in vivo at 0.26 %: 91%
[4]; rabbit liver
  Liver Parent = parent compound concentration: 0 µg/g
[4]; rabbit serum
  Serum Parent = parent compound concentration: 0 µg/mL
[5]
  food (grams eaten per day per rabbit), percent of control: 100%
[5]; rabbit
  body wt., percent of control: 101%
  lw/bw (liver weight/body weight), percent of control: 96%
[6]
  response vs control in vivo at 0.26 %: 49%

— patent US5608095A, “Alkyl-4-silyl-phenols and esters thereof as antiatherosclerotic agents” (Hoechst Marion Roussel, Inc., priority 1996, dated 1997)
